According to paper PMC10036551, “Genome mining unveils a class of ribosomal peptides with two amino termini” (Nature Communications, 2023):
Residues, ends and D or L forms follow the SMILES beside them. *: point of attachment. X1 = C[C@@H](CN*)N(C)C

Type: physicochemical
Method: The HPLC-purified products were analyzed by high-resolution mass spectrometry and tandem mass spectrometry (HR-MS/MS). […] Considering the predicted functions of genes encoded by the mpa BGC, we proposed that Thr underwent conversion to Dmp. To evaluate this hypothesis, a sufficient amount of 1 was accumulated for structure determination, due to its higher post-purification yield than 2 and 3. […] NMR analyses (^1H, ^13C, ^1H-^1H COSY, ^1H-^13C HSQC and ^1H-^13C HMBC) were then conducted in HFIP-d2 and a substructure corresponding to Dmp was deduced.

solubility in commonly used NMR solvents: only sparingly soluble
solubility in hexafluoroisopropanol (HFIP): highly soluble
Compound: CC[C@H](C)[C@H](NC(=O)CNC(=O)[C@@H](NC(=O)[C@H](CC(C)C)NC(=O)[C@@H](NC(=O)[C@H](CC(C)C)NC(=O)[C@H](C)NC(=O)CNC(=O)[C@@H](NC(=O)[C@@H](NC(=O)CNC(=O)[C@H](CCC(N)=O)NC(=O)[C@H](Cc1ccc(O)cc1)NC(=O)[C@H](Cc1ccccc1)NC(=O)[C@H](CO)NC(=O)[C@H](CC(=O)O)NC(=O)[C@H](Cc1c[nH]c2ccccc12)NC(=O)[C@@H](N)CO)C(C)C)[C@@H](C)CC)C(C)C)[C@@H](C)CC)C(=O)NCC(=O)N[C@@H](C)C(=O)N[C@@H](C)C(=O)N[C@@H](C)C(=O)N[C@@H](C)C(=O)NC[C@H](C)N(C)C [compound 1] (H-SWDSFYQGVIGALVLIGIGAAAA-X1)
